Where two headings read alike, the source gives them in different places.
What was measured:
[1] = biological target: recombinant mTOR (FLAG-tagged, amino acid residues 1362 to 2549) (Homo sapiens, UniProt P42345); experiment: Alternative Enzyme Assay: AlphaScreen, inhibition of phosphorylation by recombinant mTOR; assay type: biochemical; conditions: Alternative Enzyme Assay, single values; read-out: IC50
[2] = biological target: T1, mTOR (Homo sapiens, UniProt P42345); experiment: Biological Assay: mTOR enzyme activity, mTOR immunoprecipitated from HeLa cell cytoplasmic extract, recombinant PHAS-1 as substrate; assay type: biochemical; conditions: Biological Assay
T1 construct: mTOR protein was isolated from HeLa cell cytoplasmic extract by immunoprecipitation; endogenous in cells; host or cells: HeLa cell cytoplasmic extract (immunoprecipitate)

[3] = system: phosphorylation of Serine 473 in Akt in MDA-MB-468 cells; experiment: In Vitro phospho-Ser473 Akt Assay (Acumen Explorer); assay type: cell-based; conditions: Homo sapiens
[4] = system: T47D cells; experiment: Cell Proliferation Assay (GI50), sulforhodamine B (SRB) assay; assay type: cell-based; conditions: Homo sapiens, 120 hours, SRB
Procedure: Cell growth was assessed using the sulforhodamine B (SRB) assay (A). T47D (ECACC, 85102201) cells were routinely passaged in RPMI (Invitrogen, 42401018) plus 10% foetal calf serum (FCS), 1% L-glutamine (Gibco BRL, 25030) to a confluence not greater than 80%. To undertake the assay, T47D cells were seeded at 2.5×10^3 cells/well in […] RPMI plus 10% foetal calf serum, 1% L-glutamine in 96 well plates (Costar, 3904) and incubated at 37° C. (+5% CO2) in a humidified incubator. Once the cells had fully adhered (typically following 4-5 hours incubation) the plate was removed from the incubator and 10 μL of the diluent added to the control wells (A1-12 and B1-12). Compound was prepared in a six point semi-log dilution at 10× the final concentration required e.g. for a 6 point range of 30 μM to 100 nM in semi-log steps dilution started at 300 μM in stock plate. Dosing was completed by addition of 10 μL of compound at highest concentration to C1-12 through to the lowest concentration in H1-12. The plates were then incubated for 120 hours prior to SRB analysis.
Upon completion of incubation, media was removed and the cells fixed with […] of ice cold 10% (w/v) trichloroacetic acid. The plates were incubated at 4° C. for 20 minutes and then washed four times with water. Each well of cells was then stained with 100 μl of 0.4% (w/v) SRB (Sulforhodamine B, Sigma, Poole, Dorset, UK, Catalogue number S-9012) in 1% acetic acid for 20 minutes before washing four times with 1% acetic acid. Plates were then dried for 2 hours at room temperature. The dye from the stained cells was solubilized by the addition of 100 μl of 10 mM Tris Base into each well. Plates were gently shaken and left at room temperature for 30 minutes before measuring the optical density at 564 nm on a Microquant microtiter plate reader. The concentration of inhibitor eliciting a 50% reduction in growth (GI50) was determined by analysis of staining intensity of the treated cells as a percentage of the vehicle control wells using Excelfit software.
(A) Skehan, P., Storung, R., Scudiero, R., Monks, A., McMahon, J., Vistica, D., Warren, J. T., Bokesch, H., Kenny, S. and Boyd, M. R. (1990) New […] cytotoxicity assay for anticancer-drug screening. J. Natl. Cancer Inst. 82, 1107-1112.

[5] = upper bounds, read-out: IC50 values against mTOR

Row | IC50 [2, 5] | GI50 ([4]; upper bounds) | Structure (SMILES) | further results
1 | – | – | C[C@@H]1CN(c2nc(N3CCOCC3)c3ccc(-c4ccsc4)nc3n2)C[C@H](C)O1 [Comparative Example 1k, reference compound] | IC50 [1]: 225 nM; IC50 ([2]; single values, read-out: IC50): 33 nM; IC50 ([3]; MDA-MB-468 cells, single values, read-out: IC50 (phospho-Ser473 Akt assay)): 412 nM; GI50 ([4]; single values): 268 nM
2 | – | – | C[C@@H]1CN(c2nc(N3CCOC[C@@H]3C)c3ccc(-c4ccsc4)nc3n2)C[C@H](C)O1 [Example 11k] | IC50 ([3]; MDA-MB-468, read-out: IC50 (phospho-Ser473 Akt assay)): 83 nM; GI50 ([4]; single values): 32 nM
3 | < 1000 nM | < 300 nM | C=CCOC(=O)[C@H](CC(C)C)NCc1cc(-c2ccc3c(N4CCOCC4)nc(N4C[C@@H](C)O[C@@H](C)C4)nc3n2)ccc1OC [Example 8af] | –
4 | < 10000 nM | – | COc1ccc(-c2ccc3c(N4CCOCC4)nc(N4C[C@@H](C)O[C@@H](C)C4)nc3n2)cc1CNCc1cccc(OC)c1OC [Example 8z] | GI50 [4]: < 1000 nM
5 | < 1000 nM | – | COc1ccc(-c2ccc3c(N4CCOCC4)nc(N4C[C@@H](C)O[C@@H](C)C4)nc3n2)cc1CNC(Cc1ccc([N+](=O)[O-])cc1)C(=O)O (stereo partly shown) [Example 8y] | GI50 [4]: < 1000 nM
6 | < 100 nM | < 300 nM | COc1ccc(-c2ccc3c(N4CCOCC4)nc(N4C[C@@H](C)O[C@@H](C)C4)nc3n2)cc1CNCc1cccc(CN)c1 [Example 8ap] | –
7 | < 100 nM | – | CCN(CC)CCCNCc1cc(-c2ccc3c(N4CCOCC4)nc(N4C[C@@H](C)O[C@@H](C)C4)nc3n2)ccc1OC [Example 8h] | GI50 [4]: < 1000 nM
8 | < 100 nM | < 300 nM | COc1ccc(-c2ccc3c(N4CCOCC4)nc(N4C[C@@H](C)O[C@@H](C)C4)nc3n2)cc1CNCCO [Example 8d] | –
9 | < 100 nM | < 300 nM | COc1ccc(-c2ccc3c(N4CCOCC4)nc(N4C[C@@H](C)O[C@@H](C)C4)nc3n2)cc1CNC(C)CO (stereo partly shown) [Example 8aq] | –
10 | < 100 nM | < 300 nM | CNCc1cc(-c2ccc3c(N4CCOCC4)nc(N4C[C@@H](C)O[C@@H](C)C4)nc3n2)ccc1OC [Example 8f] | –
11 | < 100 nM | < 300 nM | COc1ccc(-c2ccc3c(N4CCOCC4)nc(N4C[C@@H](C)O[C@@H](C)C4)nc3n2)cc1CNCc1ccc([35Cl])cc1[35Cl] [Example 8aw] | –
12 | < 100 nM | < 300 nM | COc1ccc(-c2ccc3c(N4CCOCC4)nc(N4C[C@@H](C)O[C@@H](C)C4)nc3n2)cc1CNCC1CCCCCC1O (stereo partly shown) [Example 8ab] | –
13 | < 100 nM | < 300 nM | COc1ccc(-c2ccc3c(N4CCOCC4)nc(N4C[C@@H](C)O[C@@H](C)C4)nc3n2)cc1CNc1cc[nH]n1 [Example 8al] | –
14 | < 100 nM | < 300 nM | COc1ccc(-c2ccc3c(N4CCOCC4)nc(N4C[C@@H](C)O[C@@H](C)C4)nc3n2)cc1CNCc1ccccc1[35Cl] [Example 8ax] | –
15 | < 100 nM | < 300 nM | COc1ccc(-c2ccc3c(N4CCOCC4)nc(N4C[C@@H](C)O[C@@H](C)C4)nc3n2)cc1CNC1CCC1 [Example 8a] | –
16 | < 100 nM | < 300 nM | COc1ccc(-c2ccc3c(N4CCOCC4)nc(N4C[C@@H](C)O[C@@H](C)C4)nc3n2)cc1CNCC(O)c1cccc(O)c1 (stereo partly shown) [Example 8bb] | –
17 | < 1000 nM | < 300 nM | COc1ccc(-c2ccc3c(N4CCOCC4)nc(N4C[C@@H](C)O[C@@H](C)C4)nc3n2)cc1CNC(C)C [Example 8r] | –
18 | < 100 nM | < 300 nM | COc1ccc(-c2ccc3c(N4CCOCC4)nc(N4C[C@@H](C)O[C@@H](C)C4)nc3n2)cc1CNC1CCCC(C)C1C (stereo partly shown) [Example 8ag] | –
19 | < 1000 nM | < 300 nM | CCCCCOc1ccc(NCc2cc(-c3ccc4c(N5CCOCC5)nc(N5C[C@@H](C)O[C@@H](C)C5)nc4n3)ccc2OC)cc1 [Example 8bf] | –

Reference: patent US20080194546A1, “Pyrido-, Pyrazo- and Pyrimido-Pyrimidine Derivatives as mTOR Inhibitors” (KuDOS Pharmaceuticals Limited, priority 2005, published 2008)
